From PubChem BioAssay AID316 (DTP/NCI, 2004)
Values joined by “and” are separate entries in the source; they are usually repeats but may differ in a detail not shown here. Equal values may be shown once. Toxic doses and inconclusive results are not listed. The calls were made as follows: active = survival T/C of 150% or more; inactive = T/C below 125% in these data.

System: P1534 leukemia ip, CD2F1 mice, survival T/C
Test: NCI In Vivo Anticancer Drug Screen. Data for tumor model P1534 Leukemia (intraperitoneal) in CD2F1 (CDF1) mice
Details: higher = longer survival
Protocol: The antitumor activity of compounds was measured in mice bearing transplantable tumors. Survival or tumor size were measured and the results are expressed as the measurement made in the treated group (T) divided by the measurement made in the vehicle treated control group (C). The tumor model used in this assay is P1534 Leukemia (intraperitoneal) in CD2F1 (CDF1) mice

[1] = endpoint: mean survival time, dose: 10.0 mg/kg/injection, schedule: Q01DX010 (ip), vehicle: saline
[2] = endpoint: mean survival time, dose: 20.0 mg/kg/injection, schedule: Q01DX010 (ip), vehicle: saline
[3] = endpoint: mean survival time, dose: 80.0 mg/kg/injection, schedule: Q01DX010 (ip), vehicle: saline
[4] = endpoint: mean survival time, dose: 12.5 mg/kg/injection, schedule: Q01DX010 (ip), vehicle: saline
[5] = endpoint: mean survival time, dose: 25.0 mg/kg/injection, schedule: Q01DX010 (ip), vehicle: saline
[6] = endpoint: mean survival time, dose: 50.0 mg/kg/injection, schedule: Q01DX010 (ip), vehicle: saline
[7] = endpoint: mean survival time, dose: 100.0 mg/kg/injection, schedule: Q01DX010 (ip), vehicle: saline
[8] = endpoint: mean survival time, dose: 7.5 mg/kg/injection, schedule: Q01DX010 (ip), vehicle: saline
[9] = endpoint: mean survival time, dose: 15.0 mg/kg/injection, schedule: Q01DX010 (ip), vehicle: saline
[10] = endpoint: mean survival time, dose: 30.0 mg/kg/injection, schedule: Q01DX010 (ip), vehicle: saline
[11] = endpoint: mean survival time, dose: 200.0 mg/kg/injection, schedule: Q01DX010 (ip), vehicle: saline
[12] = endpoint: mean survival time, dose: 400.0 mg/kg/injection, schedule: Q01DX010 (ip), vehicle: saline
[13] = endpoint: mean survival time, dose: 1.25 mg/kg/injection, schedule: Q01DX010 (ip), vehicle: saline
[14] = endpoint: mean survival time, dose: 2.5 mg/kg/injection, schedule: Q01DX010 (ip), vehicle: saline
[15] = endpoint: mean survival time, dose: 6.25 mg/kg/injection, schedule: Q01DX010 (ip), vehicle: saline
[16] = endpoint: mean survival time, dose: 40.0 mg/kg/injection, schedule: Q01DX010 (ip), vehicle: saline
[17] = endpoint: mean survival time, dose: 1.0 mg/kg/injection, schedule: Q01DX010 (ip), vehicle: saline
[18] = endpoint: mean survival time, dose: 2.0 mg/kg/injection, schedule: Q01DX010 (ip), vehicle: saline

Measured: T/C

NC(N)=NCCCC(N)C(=O)NCCCCCCNCCCCCCNC(=O)C(N)CCCN=C(N)N (stereo not drawn)
inactive: endpoint: mean survival time, dose: 5.0 mg/kg/injection, schedule: Q01DX010 (ip), vehicle: saline 107 % of control | [1] 96 % of control | [2] 100 % of control

Nc1nc(N)c2nc(CNc3ccc(C(=O)NC(CCC(=O)O)C(=O)O)cc3)cnc2n1 (stereo not drawn)
active: endpoint: mean survival time, dose: 100.0 micrograms/kg/injection, schedule: Q01DX010 (ip), vehicle: other 159 % of control | endpoint: median survival time, dose: 0.05 mg/kg/injection, schedule: Q01DX009 (ip), vehicle: sodium bicarbonate 164 % of control
inactive: endpoint: mean survival time, dose: 25.0 micrograms/kg/injection, schedule: Q01DX010 (ip), vehicle: other 109 % of control | endpoint: mean survival time, dose: 50.0 micrograms/kg/injection, schedule: Q01DX010 (ip), vehicle: other 113 % of control and 122 % of control | endpoint: mean survival time, dose: 200.0 micrograms/kg/injection, schedule: Q01DX010 (ip), vehicle: other 95 % of control and 100 % of control | endpoint: median survival time, dose: 0.1 mg/kg/injection, schedule: Q01DX009 (ip), vehicle: sodium bicarbonate 93 % of control

CN(C)c1ccc(Nc2c3ccccc3nc3ccccc23)cc1
inactive: endpoint: mean survival time, dose: 36.0 mg/kg/injection, schedule: Q01DX010 (ip), vehicle: saline 121 % of control | [3] 92 % of control

CC[C@]12CN3CCc4c([nH]c5ccccc45)[C@@](C(=O)OC)(c4cc5c(cc4OC)N(C)[C@H]4[C@@](O)(C(=O)OC)[C@H](OC(C)=O)[C@]6(CC)C=CCN7CC[C@]54[C@@H]76)CC(C3)[C@H]1O2 (stereo partly drawn)
inactive: endpoint: mean survival time, dose: 94.0 micrograms/kg/injection, schedule: Q01DX010 (ip), vehicle: saline 96 % of control | endpoint: mean survival time, dose: 188.0 micrograms/kg/injection, schedule: Q01DX010 (ip), vehicle: saline 103 % of control | endpoint: mean survival time, dose: 375.0 micrograms/kg/injection, schedule: Q01DX010 (ip), vehicle: saline 123 % of control
active: endpoint: mean survival time, dose: 1.5 mg/kg/injection, schedule: Q01DX010 (ip), vehicle: saline 182 % of control | endpoint: mean survival time, dose: 3.0 mg/kg/injection, schedule: Q01DX010 (ip), vehicle: saline 260 % of control

C/C=C1\CNC2Cc3c([nH]c4ccccc34)C(=O)CC1C2C(=O)OC (stereo not drawn)
inactive: [4] 93 % of control | [5] 103 % of control | [6] 96 % of control | [7] 93 % of control

C/C=C1\CN2C3C[C@H]1C(C(=O)OC)[C@H]2Cc1c3[nH]c2ccccc12 (stereo partly drawn)
inactive: [8] 100 % of control | [9] 93 % of control | [10] 93 % of control

O=C(NCCCC(NC(=O)OCc1ccccc1)C(=O)NCCCCCCNCCCCCCNC(=O)C(CCCNC(=O)OCc1ccccc1)NC(=O)OCc1ccccc1)OCc1ccccc1 (stereo not drawn)
inactive: [4] 100 % of control | [5] 100 % of control | [7] 100 % of control

CC[C@@H](c1ccc(O)cc1)[C@@H](CC)c1ccc(O)cc1
inactive: endpoint: mean survival time, dose: 25.0 mg/kg/injection, schedule: Q01DX010 (sc), vehicle: water 100 % of control | endpoint: mean survival time, dose: 50.0 mg/kg/injection, schedule: Q01DX010 (sc), vehicle: water 92 % of control | endpoint: mean survival time, dose: 100.0 mg/kg/injection, schedule: Q01DX010 (sc), vehicle: water 92 % of control | endpoint: mean survival time, dose: 200.0 mg/kg/injection, schedule: Q01DX010 (sc), vehicle: water 92 % of control

N=C(N)SCc1c2ccccc2c(CSC(=N)N)c2ccccc12
inactive: endpoint: mean survival time, dose: 0.31 mg/kg/injection, schedule: Q01DX010 (ip), vehicle: saline 117 % of control | endpoint: mean survival time, dose: 0.63 mg/kg/injection, schedule: Q01DX010 (ip), vehicle: saline 121 % of control

CC(=O)NCCCCCCCCCCNC(C)=O
inactive: [6] 100 % of control | [7] 100 % of control | [11] 92 % of control | [12] 96 % of control

CCn1cnc2c(=S)nc[nH]c21
inactive: endpoint: mean survival time, dose: 31.3 mg/kg/injection, schedule: Q01DX010 (ip), vehicle: saline 114 % of control

O=C(CCCNC(=O)OCc1ccccc1)NCCCCCCCCCCNC(=O)CCCNC(=O)OCc1ccccc1
inactive: [6] 89 % of control | [7] 89 % of control

N[C@@H](Cc1ccc(N(CCCl)CCCl)cc1)C(=O)O
active: [13] 164 % of control | [14] 189 % of control

C[C@H]1/C(=C/C(=O)OCCN(C)C)CC[C@H]2[C@H]1C(=O)C[C@H]1C(C)(C)[C@@H](O)CC[C@]21C
inactive: endpoint: mean survival time, dose: 4.0 mg/kg/injection, schedule: Q01DX010 (ip), vehicle: saline 96 % of control | endpoint: mean survival time, dose: 8.0 mg/kg/injection, schedule: Q01DX010 (ip), vehicle: saline 113 % of control

CC(=O)NCCCCCCNC(C)=O
inactive: [6] 93 % of control | [7] 96 % of control | [11] 96 % of control | [12] 100 % of control

CCCNc1ncnc2[nH]ncc12
inactive: endpoint: mean survival time, dose: 3.13 mg/kg/injection, schedule: Q01DX010 (ip), vehicle: saline 100 % of control | [15] 88 % of control and 100 % of control | [4] 111 % of control and 100 % of control | [5] 94 % of control and 100 % of control

C/C=C1/CN(C)C2Cc3c([nH]c4ccccc34)C(c3cc4[nH]c5c(c4cc3OC)CCN3CC4CC(C(C)O)C3C5(C(=O)OC)C4)CC1C2C(=O)OC (stereo not drawn)
inactive: endpoint: mean survival time, dose: 5.0 mg/kg/injection, schedule: Q01DX010 (ip), vehicle: water 98 % of control | endpoint: mean survival time, dose: 10.0 mg/kg/injection, schedule: Q01DX010 (ip), vehicle: other 103 % of control | endpoint: mean survival time, dose: 10.0 mg/kg/injection, schedule: Q01DX010 (ip), vehicle: water 96 % of control | endpoint: mean survival time, dose: 15.0 mg/kg/injection, schedule: Q01DX010 (ip), vehicle: water 94 % of control | endpoint: mean survival time, dose: 20.0 mg/kg/injection, schedule: Q01DX010 (ip), vehicle: other 92 % of control | endpoint: mean survival time, dose: 20.0 mg/kg/injection, schedule: Q01DX010 (ip), vehicle: water 107 % of control | endpoint: mean survival time, dose: 30.0 mg/kg/injection, schedule: Q01DX010 (ip), vehicle: other 94 % of control | endpoint: mean survival time, dose: 40.0 mg/kg/injection, schedule: Q01DX010 (ip), vehicle: other 92 % of control

O=C(C[C@H]1CCC[C@H](CC(=O)c2ccccc2)N1)c1ccccc1
inactive: [4] 92 % of control | [5] 107 % of control | [6] 107 % of control

COc1ccc2[nH]c3c(C)c4ccncc4c(C)c3c2c1
inactive: [1] 105 % of control and 102 % of control | [2] 110 % of control and 117 % of control | [16] 115 % of control and 123 % of control | [3] 122 % of control

OCCN1CCC(CCCC2CCNCC2)CC1
inactive: [4] 96 % of control | [5] 93 % of control | [6] 89 % of control

OCC1OC(n2cnc3c(=S)nc[nH]c32)C(O)C1O (stereo not drawn)
inactive: [2] 111 % of control | [16] 111 % of control and 122 % of control

N#C[C@@H]1C2C=CC(CC2)[C@H]1C#N
inactive: endpoint: mean survival time, dose: 0.25 mg/kg/injection, schedule: Q01DX010 (ip), vehicle: saline 100 % of control | endpoint: mean survival time, dose: 0.5 mg/kg/injection, schedule: Q01DX010 (ip), vehicle: saline 103 % of control and 96 % of control | [17] 103 % of control and 100 % of control | [18] 103 % of control and 96 % of control

O=CC1CO1 (stereo not drawn)
inactive: endpoint: mean survival time, dose: 13.0 mg/kg/injection, schedule: Q01DX010 (ip), vehicle: saline 107 % of control | endpoint: mean survival time, dose: 19.0 mg/kg/injection, schedule: Q01DX010 (ip), vehicle: saline 107 % of control | endpoint: mean survival time, dose: 29.0 mg/kg/injection, schedule: Q01DX010 (ip), vehicle: saline 111 % of control | endpoint: mean survival time, dose: 29.0 mg/kg/injection, schedule: Q01DX010 (ip), vehicle: steriod suspending solution 100 % of control | endpoint: mean survival time, dose: 44.0 mg/kg/injection, schedule: Q01DX010 (ip), vehicle: saline 100 % of control | endpoint: mean survival time, dose: 44.0 mg/kg/injection, schedule: Q01DX010 (ip), vehicle: steriod suspending solution 86 % of control

Clc1ncnc2nc[nH]c12
inactive: [8] 106 % of control and 100 % of control | [9] 94 % of control | [10] 105 % of control | endpoint: mean survival time, dose: 60.0 mg/kg/injection, schedule: Q01DX010 (ip), vehicle: saline 105 % of control

NNC(=O)c1cnccn1
inactive: endpoint: mean survival time, dose: 40.0 mg/kg/injection, schedule: Q01DX010 (ip), vehicle: water 121 % of control | endpoint: mean survival time, dose: 80.0 mg/kg/injection, schedule: Q01DX010 (ip), vehicle: water 110 % of control and 97 % of control

COC(=O)C1=COC(C)C2CN3CCc4c([nH]c5ccccc45)C3CC12 (stereo not drawn)
inactive: [2] 96 % of control | [16] 93 % of control | [3] 96 % of control

CC[n+]1c(-c2ccccc2)c2cc(N)ccc2c2ccc(N)cc21
active: [1] 150 % of control
inactive: [13] 117 % of control | [14] 117 % of control

Cc1cc(O)c2cc3c(O)c(O)ccc3cc2c1
inactive: [17] 100 % of control | [18] 103 % of control

Cc1cc2nc3c(=O)[nH]c(=O)nc-3n(CC(O)C(O)C(O)C(O)CO)c2cc1C (stereo not drawn)
inactive: [5] 111 % of control | [6] 107 % of control and 100 % of control | [7] 107 % of control and 111 % of control | [11] 111 % of control

CN(C)/N=N/c1nc[nH]c1C(N)=O
inactive: [15] 100 % of control | [4] 107 % of control | [5] 103 % of control | [6] 107 % of control
